Key:
Assay type in all cases: cell-based
GR = target: T1, GR (Homo sapiens, UniProt P04150); assay: Functional assay of glucocorticoid receptor antagonism (Gal4-GR-LBD luciferase reporter, COS-7 cells, dexamethasone-stimulated); details: antagonism of GR trans-activation induced by 10 nM dexamethasone
T1 construct: expressed in transfected cells; host or cells: COS-7 cells
T1 sequence (P04150 541-777): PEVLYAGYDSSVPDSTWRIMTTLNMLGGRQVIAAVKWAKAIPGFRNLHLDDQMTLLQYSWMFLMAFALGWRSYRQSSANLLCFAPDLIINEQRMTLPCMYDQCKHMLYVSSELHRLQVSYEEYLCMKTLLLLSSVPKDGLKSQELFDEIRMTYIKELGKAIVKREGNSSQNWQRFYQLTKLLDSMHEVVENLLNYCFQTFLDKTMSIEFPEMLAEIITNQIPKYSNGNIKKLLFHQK
Experimental: The GR antagonist activity of the compounds is determined in a mammalian two hybrid reporter system. The ligand binding domain of GR (GR-LBD, sequence encoding amino acid 541-778) is fused to the DNA binding domain of the yeast Gal4 gene. The GR gene is cloned from a human lung cDNA library with PCR.
The assay is performed in 384 well plates: COS-7 cells (ATCC) are transfected with expression vectors for Gal-4-GR-LBD and a luciferase reporter vector containing Gal4 binding sequence (pG5-Luc). Cells are plated in 384 well plates immediately after transfection (approximately 8000 cells/well in 50 μl medium). The medium is supplemented with 3% charcoal-dextran treated fetal bovine serum (Hyclone). Twenty four hours after transfection, compounds prepared in DMSO are transferred to the cells. The cells are then stimulated with 10 nM final concentration of dexamethasone (Sigma) and incubated at 37° C. for another 24 hours before the luciferase activity is assayed with 20 μl of Bright-Glo (Promega) using a luminometer (CLIPR). The expression of luciferase is used as an indicator of dexamethasone-induced GR trans-activation. Each compound is tested in duplicates with a 12-concentration titration. IC50 values (defined as the concentration of test compound required to antagonize 50% of dexamethasone-induced GR activity) are determined from the dose-response curve.

MR = target: T2, MR (Homo sapiens, UniProt P08235); assay: Functional assay of mineralocorticoid receptor antagonism (mammalian two hybrid luciferase reporter, 293T cells, aldosterone-stimulated); details: antagonism of MR trans-activation induced by 0.4 nM aldosterone
T2 construct: expressed in transfected cells; host or cells: 293T cells
T2 sequence (P08235 672-984): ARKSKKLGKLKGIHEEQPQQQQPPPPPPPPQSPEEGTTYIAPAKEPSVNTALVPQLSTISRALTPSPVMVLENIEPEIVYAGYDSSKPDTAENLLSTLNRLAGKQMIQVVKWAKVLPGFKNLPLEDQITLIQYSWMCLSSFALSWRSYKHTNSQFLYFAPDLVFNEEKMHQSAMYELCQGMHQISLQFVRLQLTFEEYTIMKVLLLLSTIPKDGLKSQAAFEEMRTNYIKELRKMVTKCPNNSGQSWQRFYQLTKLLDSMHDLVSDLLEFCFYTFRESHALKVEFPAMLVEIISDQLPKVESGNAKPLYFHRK
Experimental: The MR antagonist activity of the compounds is determined in a mammalian two hybrid reporter system. The N-terminus of MR (MR-NT, sequence coding amino acid 1-597) is fused to the activation domain of the VP16 gene. The ligand binding domain of MR (MR-LBD, sequence encoding amino acid 672-984) is fused to the DNA binding domain of the yeast Gal4 gene. The MR gene is cloned from a human kidney cDNA library with PCR.
The assay is performed in 384 well plates. Briefly, 293T cells (ATCC) are transfected with expression vectors for Gal-4-MR-LBD and VP16-MR NT, and a luciferase reporter vector containing Gal4 binding sequence (pG5-Luc). Cells are plated in 384 well plates immediately after transfection (approximately 3×10^4 cells/well in 50 μl medium). The medium is supplemented with 3% charcoal-dextran treated fetal bovine serum (Hyclone). Twenty four hours after transfection, compounds prepared in DMSO are transferred to the cells. The cells are then stimulated with 0.4 nM final concentration of aldosterone (Acros) and incubated at 37° C. for another 24 hours before the luciferase activity is assayed with 20 μl of Bright-Glo (Promega) using a luminometer (CLIPR). The expression of luciferase is used as an indicator of aldosterone-induced MR trans-activation. Each compound is tested in duplicates with 12-concentration titration. IC50 values (defined as the concentration of test compound required to antagonize 50% of aldosterone-induced MR activity) are determined from the dose-response curve.

PR = target: T3, PR (Homo sapiens, UniProt P06401); assay: Functional assay of progesterone receptor antagonism (progesterone-induced alkaline phosphatase activity in T-47D cells); details: antagonism of PR activity induced by 3 nM progesterone
T3 sequence (P06401 1-933): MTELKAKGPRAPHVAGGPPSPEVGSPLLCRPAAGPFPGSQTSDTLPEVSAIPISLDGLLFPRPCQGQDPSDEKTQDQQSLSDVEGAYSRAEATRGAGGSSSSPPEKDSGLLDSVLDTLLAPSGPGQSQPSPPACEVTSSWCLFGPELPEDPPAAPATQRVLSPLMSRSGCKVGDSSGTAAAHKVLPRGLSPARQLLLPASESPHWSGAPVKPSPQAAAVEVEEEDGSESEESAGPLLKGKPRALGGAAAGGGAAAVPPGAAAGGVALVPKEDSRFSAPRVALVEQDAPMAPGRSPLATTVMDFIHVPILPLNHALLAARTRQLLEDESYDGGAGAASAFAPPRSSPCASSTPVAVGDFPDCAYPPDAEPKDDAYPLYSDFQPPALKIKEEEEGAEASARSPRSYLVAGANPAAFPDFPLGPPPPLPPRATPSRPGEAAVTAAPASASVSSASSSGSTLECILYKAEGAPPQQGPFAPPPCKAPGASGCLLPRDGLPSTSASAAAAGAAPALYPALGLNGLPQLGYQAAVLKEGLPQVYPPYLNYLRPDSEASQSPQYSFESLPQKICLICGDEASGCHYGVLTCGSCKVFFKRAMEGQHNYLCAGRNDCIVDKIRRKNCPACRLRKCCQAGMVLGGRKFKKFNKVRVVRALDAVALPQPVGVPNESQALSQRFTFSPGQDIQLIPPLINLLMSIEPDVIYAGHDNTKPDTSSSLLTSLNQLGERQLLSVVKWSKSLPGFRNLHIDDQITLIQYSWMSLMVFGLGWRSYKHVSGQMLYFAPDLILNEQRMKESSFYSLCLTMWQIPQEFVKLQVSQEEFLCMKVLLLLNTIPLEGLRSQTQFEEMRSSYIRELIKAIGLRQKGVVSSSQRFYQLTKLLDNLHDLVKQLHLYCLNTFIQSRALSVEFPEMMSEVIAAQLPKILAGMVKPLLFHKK
Experimental: The PR antagonist activity of the compounds is determined by progesterone-induced alkaline phosphatase activity in the T-47D cell line (ATCC). In the T-47D breast cancer cells, progesterone specifically induces de novo synthesis of a membrane-associated alkaline phosphatase enzyme in a time and dose-dependent manner (Di Lorenzo et al., Cancer Research, 51: 4470-4475 (1991)). The alkaline phosphatase enzymatic activity can be measured with a chemiluminescent substrate, such as CSPD® (Applied Biosystems). The assay is performed in 384 well plates. Briefly, T-47D cells are plated in 384 well plates at a density of approximately 2.5×10^4 cells/well in 50 μl medium supplemented with 10% fetal bovine serum. Twenty four hours later, the medium is aspirated. New medium that is free of phenol red and serum is added to the cells. Compounds prepared in DMSO are transferred to the cells. The cells are then stimulated with 3 nM final concentration of progesterone (Sigma) and incubated at 37° C. for another 24 hours before the alkaline phosphatase is assayed with 25 μl of CSPD® (Applied Biosystems) using a luminometer (CLIPR). The expression of alkaline phosphatase is used as an indicator of progesterone-induced PR trans-activation. Each compound is tested in duplicates with a 12-concentration titration. […]

AR = target: T4, AR (Homo sapiens, UniProt P10275); assay: Functional assay of androgen receptor antagonism (MMTV luciferase reporter in MDA-kb2 cells, dihydrotestosterone-stimulated); details: antagonism of AR trans-activation induced by 0.3 nM dihydrotestosterone
T4 sequence (P10275 1-920 Q868H): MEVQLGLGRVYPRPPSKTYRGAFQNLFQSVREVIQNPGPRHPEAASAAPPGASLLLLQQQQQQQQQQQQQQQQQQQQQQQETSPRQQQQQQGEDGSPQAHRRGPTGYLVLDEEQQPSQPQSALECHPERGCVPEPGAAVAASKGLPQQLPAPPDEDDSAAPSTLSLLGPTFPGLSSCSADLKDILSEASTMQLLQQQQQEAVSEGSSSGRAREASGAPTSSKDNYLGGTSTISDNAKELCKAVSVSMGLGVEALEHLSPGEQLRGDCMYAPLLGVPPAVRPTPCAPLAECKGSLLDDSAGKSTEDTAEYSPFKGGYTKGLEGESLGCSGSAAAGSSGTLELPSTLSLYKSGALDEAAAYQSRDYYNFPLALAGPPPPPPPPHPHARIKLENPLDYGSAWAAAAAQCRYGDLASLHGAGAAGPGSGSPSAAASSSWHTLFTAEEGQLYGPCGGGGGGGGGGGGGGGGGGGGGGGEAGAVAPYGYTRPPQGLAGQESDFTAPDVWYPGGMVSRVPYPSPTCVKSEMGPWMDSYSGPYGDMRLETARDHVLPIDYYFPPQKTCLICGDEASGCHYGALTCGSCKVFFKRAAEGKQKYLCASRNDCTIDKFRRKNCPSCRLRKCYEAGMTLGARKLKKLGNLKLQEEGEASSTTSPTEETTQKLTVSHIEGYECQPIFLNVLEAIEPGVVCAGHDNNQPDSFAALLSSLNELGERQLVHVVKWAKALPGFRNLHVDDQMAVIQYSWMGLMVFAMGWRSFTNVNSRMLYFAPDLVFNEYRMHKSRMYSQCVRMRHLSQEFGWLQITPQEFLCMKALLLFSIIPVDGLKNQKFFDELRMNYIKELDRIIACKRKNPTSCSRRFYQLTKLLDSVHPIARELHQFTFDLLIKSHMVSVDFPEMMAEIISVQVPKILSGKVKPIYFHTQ
Experimental: The AR antagonist activity of the compounds is determined with the MDA-Kb2 cell line (ATCC), which stably expresses the MMTV luciferase reporter. The MMTV promoter is a mouse mammary tumor virus promoter that contains androgen receptor response elements. […] Upon stimulation with AR ligands, such as dihydrotestosterone, the MMTV luciferase reporter can be activated.
The assay is performed in 384 well plates. Briefly, MDA-kb2 cells are plated in 384 well plates at a density of approximately 2.4×10^4 cells/well in 50 μl medium. The medium is supplemented with 5% charcoal-dextran treated fetal bovine serum (Hyclone). Twenty four hours later, compounds prepared in DMSO are transferred to the cells. The cells are then stimulated with 0.3 nM final concentration of dihydrotestosterone (Sigma) and incubated at 37° C. for another 24 hours before the luciferase activity is assayed with 20 μl of Bright-Glo (Promega) using a luminometer (CLIPR). The expression of luciferase is used as an indicator of dihydrotestosterone-induced AR trans-activation. Each compound is tested in duplicates with a 12-concentration titration. IC50 values (defined as the concentration of test compound required to antagonize 50% of dihydrotestosterone-induced AR activity) are determined from the dose-response curve.

Row | IC50 (GR) [µM] | IC50 (MR) [µM] | IC50 (PR) [µM] | IC50 (AR) [µM] | SMILES
1 | 0.21 | 0.0013 | – | – | CC(=O)Oc1ccc(CCc2cc(C)c3c(c2)NC(=O)CO3)c(C)c1 [Acetic acid 3-methyl-4-[2-(8-methyl-3-oxo-3,4-dihydro-2H-benzo[1,4]oxazin-6-yl)-ethyl]-phenyl ester]
2 | – | < 0.002 | – | – | CC(=O)Oc1ccc(CCc2ccc3c(c2)NC(=O)CO3)c(C)c1 [acetic acid 3-methyl-4-[2-(3-oxo-3,4-dihydro-2H-benzo[1,4]oxazin-6-yl)-ethyl]-phenyl ester]

The remaining lines, values behind:

Row | SMILES | IC50 (GR) [µM] | IC50 (MR) [µM] | IC50 (PR) [µM] | IC50 (AR) [µM]
3 | Cc1cccc(-c2ccc3c(c2C)NC(=O)CO3)c1 [5-Methyl-6-m-tolyl-4H-benzo[1,4]oxazin-3-one] | – | 0.047 | 0.022 | –
4 | Cc1ccccc1/C=C/c1ccc2c(c1)NC(=O)CO2 [6-(2-o-tolyl-vinyl)-4H-benzo[1,4]oxazin-3-one] | – | 0.054 | – | 0.138
5 | Cc1c(-c2csc(-c3ccccc3C(F)(F)F)n2)ccc2c1NC(=O)CO2 [5-Methyl-6-[2-(2-trifluoromethyl-phenyl)-thiazol-4-yl]-4H-benzo[1,4]oxazin-3-one] | > 10 | 0.162 | > 20 | 0.052

Source: patent publication US20090054417A1, “COMPOUNDS AND COMPOSITIONS AS MODULATORS OF STEROID HORMONE NUCLEAR RECEPTORS” (IRM LLC, priority 2004, published 2009)
